Measurements taken from patent US20200277246A1, “TREATMENT METHOD, COMPOUNDS, AND METHOD OF INCREASING TRPV2 ACTIVITY” (THE FEINSTEIN INSTITUTE FOR MEDICAL RESEARCH, priority 2015, published 2020).
Values joined by “and” are separate entries in the source; they are usually repeats but may differ in a detail not shown here. Equal entries are not always repeated.

Columns and labels:
[1] = test system: DBA1/J mice with collagen-induced arthritis; assay: Collagen induced arthritis (CIA); type: in vivo, mouse
From the text: CIA was induced in 8-week-old male DBA1/J mice (Jackson Laboratories) using a standard protocol (Courtenay et al., “Immunisation Against Heterologous Type II Collagen Induces Arthritis in Mice,” Nature 283 (5748):666-668 (1980); Nagler-Anderson et al., “Suppression of Type II Collagen-Induced Arthritis by Intragastric Administration of Soluble Type II Collagen,” Proc. Natl. Acad. Sci. U.S.A. 83 (19):7443-7446 (1986), which are hereby incorporated by reference in their entirety). Briefly, bovine type II collagen (Chondrex, Redmond, Wash.) was dissolved overnight in acetic acid 0.1 N and then homogenized at 1:1 with Complete Freund's Adjuvant (CFA, Difco, Detroit, Mich.). Anesthetized mice were injected intradermally with 100 μg of type II collagen emulsified in CFA in the tail. The new Trpv2 agonist LER13 (10 mg/Kg) or control vehicle (PBS 50%, PEG300 40%, PG 5%, PS80 5%) was started on day 10 (D10) and administered intra-peritoneally every-other-day (from D10 until day 55). On day 21 (D21), mice received a booster injection of 100 μg of type II collagen in incomplete Freund's adjuvant. Clinical signs of arthritis were evident on day 24 (D24).
Arthritis severity in CIA mice was scored using a modified scoring system based on Jirholt et al., “Genetic Linkage Analysis of Collagen-Induced Arthritis in the Mouse,” Eur. J. Immunol. 28 (10):3321-3328 (1998), which is hereby incorporated by reference in its entirety. Briefly, the modified scoring system ranged from 0-16 per mouse per day and included a functional component of disease severity (non-weight bearing) in the maximum score of 4 per paw. The arthritis severity index (ASI), which is the sum of all scores obtained during the observation period, was used to compare treatment groups as it provides a comprehensive assessment of arthritis severity over time, and correlates with histologic damage (Brenner et al., “The Non-MHC Quantitative Trait Locus Cia10 Contains a Major Arthritis Gene and Regulates Disease Severity, Pannus Formation and Joint Damage,” Arthritis Rheum. 52 (1):322-332 (2005); Brenner et al., “The Non-MHC Quantitative Trait Locus Cia5 Contains Three Major Arthritis Genes that Differentially Regulate Disease Severity, Pannus Formation, and Joint Damage in Collagen- and Pristane-Induced Arthritis,” J. Immunol. 174 (12):7894-7903 (2005), which are hereby incorporated by reference in their entirety).

[2] = test system: FLS; assay: FLS invasion, focused library screen (Table 1); type: cell-based; conditions: evaluated over 24 hours in vitro
Description: The in vitro invasiveness of FLS was assayed in a transwell system using Matrigel-coated inserts (BD Biosciences, Franklin Lakes, N.J.), as previously described (Tolboom et al., “Invasiveness of Fibroblast-Like Synoviocytes is an Individual Patient Characteristic Associated with the Rate of Joint Destruction in Patients with Rheumatoid Arthritis,” Arthritis Rheum. 52 (7):1999-2002 (2005); Laragione et al., “The Arthritis Severity Locus Cia5d is a Novel Genetic Regulator of the Invasive Properties of Synovial Fibroblasts,” Arthritis Rheum. 58 (8):2296-2306 (2008), which are hereby incorporated by reference in their entirety). Briefly, 70-80% confluent cells were harvested by trypsin-EDTA digestion, and re-suspended at 2.0×10^4 cells in 500 μl of serum-free DMEM. Cells were placed in the upper compartment of the Matrigel-coated inserts. Where indicated, O1821, LER13, or vehicle was added to the upper chamber. The lower compartment was filled with complete media and the plates were incubated at 37° C. for 24 hours. After 24 hours the upper surface of the insert was wiped with cotton-swabs to remove non-invading cells and the Matrigel layer. The opposite side of the insert was stained with Crystal Violet (Sigma) and the total number of cells that invaded through Matrigel counted at 100× magnification. Experiments were done in duplicate.

[3] = 10 mg/Kg IP every-other-day from D10, scoring to D76

C#Cc1cc(O)c(C2C=C(C)CCC2C(=C)C)c(O)c1C1C=C(C)CCC1C(=C)C [Compound 13, (1R,2″R,2R,2″S)-6′-ethynyl-5,5″-dimethyl-2,2″-di(prop-1-en-2-yl)-1,1″,2,2″,3,3″,4,4″-octahydro-[1,1′:3′,1″-terphenyl]-2′,4′-diol]
Maximum arthritis severity score per mouse, mean±SD ([1]; 10 mg/Kg IP every-other-day): 7±4.2 | Reduction of maximum arthritis severity scores per mouse vs vehicle ([1]; 10 mg/Kg IP every-other-day): ~50% and 50% | Arthritis severity index (ASI), mean±S.D. [1, 3]: 40.7±36.8 | Reduction in mean cumulative arthritis scores vs vehicle [1, 3]: 50% | Arthritis severity (CIA) ([1]; collagen-induced arthritis): Protective in CIA | Number of joints with the maximum score ([1]; day 63): 5 | Number of joints with the maximum score ([1]; day 70): 1 | FLS invasion decreased by [2]: Decreased by 64%
